Test results taken from the NIST ThermoML archive (doi:10.1021/acs.jced.7b00503).

Tests used:
[1] = wn = mass fraction of the nth substance listed; conditions: Pendant drop shape
[2] = Pendant drop shape

[I-].[K+] [potassium iodide] + O
surface tension liquid-gas [mN/m], [1]
Conditions	293.15 K	298.15 K	303.15 K	313.15 K	323.15 K	333.15 K
w1 = 0.01	73.24	72.53	71.81	70.45	68.95	67.52
w1 = 0.02	73.65	73	72.35	71.05	69.69	68.36
w1 = 0.03	74.15	73.57	72.85	71.62	70.32	68.95
w1 = 0.04	75.05	74.45	73.7	72.4	71.2	69.75
w1 = 0.05	75.44	74.79	74	72.7	71.47	69.98
w1 = 0.06	76.12	75.4	74.75	73.39	72.15	70.53
w1 = 0.07	76.76	76.04	75.39	74.09	72.6	70.97
w1 = 0.08	77.23	77.03	76.15	74.96	73.86	72.7
w1 = 0.09	78.32	77.68	77.09	75.86	74.62	73.19
w1 = 0.1	79.11	78.6	78	76.83	75.66	74.36
w1 = 0.11	80.21	79.5	78.84	77.67	76.43	75.26
w1 = 0.12	81.04	80.2	79.51	78.4	77.16	75.86

[Br-].[Na+] [sodium bromide] + O
surface tension liquid-gas [mN/m], [1]
Conditions	w1 = 0.05	w1 = 0.1	w1 = 0.15	w1 = 0.2	w1 = 0.25	w1 = 0.3	w1 = 0.35	w1 = 0.4
293.15 K	74.11	75.5	76.51	77.4	78.93	80.32	82	83.5
303.15 K	72.43	73.5	74.83	75.4	77.25	78.62	80.31	81.93
313.15 K	70.75	72	73.14	74.1	75.68	77.05	78.73	80.36
323.15 K	69.07	70	71.36	72.6	74	75.26	77.05	78.56
333.15 K	67.28	68.4	69.67	70.8	72.31	73.6	75.37	76.87
343.15 K	65.49	66.4	67.85	69.5	70.52	71.87	73.9	75.73
353.15 K	63.71	64.73	65.99	67.34	68.6	70.06	71.81	73.32

[Cl-].[Na+] [sodium chloride] + O
surface tension liquid-gas [mN/m], [1]
Conditions	w1 = 0.025	w1 = 0.05	w1 = 0.075	w1 = 0.1	w1 = 0.125	w1 = 0.15	w1 = 0.175	w1 = 0.2	w1 = 0.225	w1 = 0.25
293.15 K	73.42	74.09	74.85	75.6	76.54	77.52	78.7	79.82	81.03	81.95
298.15 K	72.63	73.32	74.15	74.9	75.8	76.7	77.82	78.85	80.32	81.41
303.15 K	71.83	72.56	73.35	74.17	75.09	76.11	77.2	78.26	79.77	80.8
313.15 K	70.33	71.12	71.95	72.81	73.86	74.9	75.98	76.99	78.54	79.7
323.15 K	68.93	69.91	70.62	71.32	72.46	73.55	74.68	75.71	77.32	78.45
333.15 K	67.21	68.24	69.21	70.14	71.18	72.22	73.43	74.52	76.01	77.14

[I-].[Na+] [sodium iodide] + O
surface tension liquid-gas [mN/m], [1]
Conditions	293.15 K	298.15 K	303.15 K	313.15 K	323.15 K	333.15 K
w1 = 0.05	73.15	72.4	71.66	70.23	68.78	67.4
w1 = 0.1	73.6	73	72.22	70.81	69.34	67.93
w1 = 0.15	74.17	73.48	72.79	71.36	69.81	68.42
w1 = 0.2	74.7	73.96	73.34	71.85	70.35	68.86
w1 = 0.25	75.15	74.4	73.8	72.45	70.95	69.43
w1 = 0.3	75.5	74.9	74.26	72.92	71.56	69.96
w1 = 0.35	76.29	75.71	75.08	73.76	72.5	71.19
w1 = 0.4	77.1	76.5	75.85	74.6	73.35	72.24
w1 = 0.45	78.25	77.63	77.03	75.96	74.77	73.77
w1 = 0.5	79.35	78.85	78.34	77.3	76.17	75.04
w1 = 0.55	80.66	80.14	79.68	78.66	77.68	77.15

O [water]
[2]
Conditions	surface tension liquid-gas [mN/m]
293.15 K	72.75
298.15 K	71.97
303.15 K	71.15
313.15 K	69.55
323.15 K	67.9
333.15 K	66.17
343.15 K	64.39
353.15 K	62.61

O [water] + [Br-].[K+]
[1], w2 = 0
Conditions	surface tension liquid-gas [mN/m]
293.15 K	72.75
303.15 K	71.15
313.15 K	69.55
323.15 K	67.9
333.15 K	66.17
343.15 K	64.39
353.15 K	62.61

O [water] + [Br-].[Na+]
[1], w2 = 0
Conditions	surface tension liquid-gas [mN/m]
293.15 K	72.75
303.15 K	71.15
313.15 K	69.55
323.15 K	67.9
333.15 K	66.17
343.15 K	64.39
353.15 K	62.61

O [water] + [Cl-].[K+]
[1], w2 = 0
Conditions	surface tension liquid-gas [mN/m]
293.15 K	72.75
303.15 K	71.15
313.15 K	69.55
323.15 K	67.9
333.15 K	66.17
343.15 K	64.39
353.15 K	62.61

O [water] + [Cl-].[Na+]
[1], w2 = 0
Conditions	surface tension liquid-gas [mN/m]
293.15 K	72.75
298.15 K	71.97
303.15 K	71.15
313.15 K	69.55
323.15 K	67.9
333.15 K	66.17

O [water] + [I-].[K+]
[1], w2 = 0
Conditions	surface tension liquid-gas [mN/m]
293.15 K	72.75
298.15 K	71.97
303.15 K	71.15
313.15 K	69.55
323.15 K	67.9
333.15 K	66.17

O [water] + [I-].[Na+]
[1], w2 = 0
Conditions	surface tension liquid-gas [mN/m]
293.15 K	72.75
298.15 K	71.97
303.15 K	71.15
313.15 K	69.55
323.15 K	67.9
333.15 K	66.17
